We go through one compound from patent publication US20180021395A1, “EUCOMMIA LEAF EXTRACT, AND PREPARATION METHOD AND USE THEREOF” (SICHUAN JIUZHANG BIOLOGICAL SCIENCE AND TECHNOLOGY CO., LTD, priority 2015, published 2018).

The structures appear in SMILES notation. Marks after values point to notes of the source that are not given here.

The subject of test [1] is psoriasis vulgaris model (transplanted psoriasis skin damage). Description: Psoriasis vulgaris model: SCID mice transplanted with patient psoriasis skin, HE histology and Baker scores. It is filed as in vivo. On the procedure:
Female and male SCID mice were separately fed for one week, and allowed to adapt growing environment. Patients with psoriasis vulgaris or plaque-type psoriasis were chosen (indentifying the informed consent). […] Aseptic packaging was wrapped up with bandage macerated with normal saline, to prepare for transplantation. According to the body weight of SCID mice, 3% chloral hydrate (0.1 ml/10 g) was administrated, followed by skin preparation and unhair. […] After transplantation of skin, mice were raised in separated cages, and all processes were finished within 2 h. After 10 days, skin damage arounding was injected with PBMC (1×10^6/mouse) provided by transplantation supplier and treated with ConA. After two weeks, exterior packing was dismantled to observe the survival situation of skin and confirm the success of model establishment, and the successful model was used for further experiment. […] The administration was kept for 10 days. […] Skin damage was trimmed into suitable size, dehydrated, embedded, sliced, and stained with HE. […] Baker scores were calculated, and the difference in data of each group was compared. All values were processed using SPSS13.0 software, and the experimental results were presented as x±s. p<0.05 was considered to be a statistical difference. The mean of multi-samples was compared using analysis of variance.

In test [2] the test system is cAMP and cGMP in serum. Description: Psoriasis vulgaris model: content and ratio of cAMP and cGMP in serum (ELISA). To be noted: x ± s, n = 10. The format is in vivo, SCID mice. The source says: (§1) Female and male SCID mice were separately fed for one week, and allowed to adapt growing environment. Patients with psoriasis vulgaris or plaque-type psoriasis were chosen (indentifying the informed consent). Dermatochalasis containing 2 cm×2 cm psoriasis skin damage in patients was chosen to make a fusiform incision, and full-thickness of skin was cut and trimmed into free skin graft with a suitable thickness of 0.6 cm×0.6 cm. Aseptic packaging was wrapped up with bandage macerated with normal saline, to prepare for transplantation. According to the body weight of SCID mice, 3% chloral hydrate (0.1 ml/10 g) was administrated, followed by skin preparation and unhair. Epidermis was scissored and cut into fascia layer, and the trimmed skin graft was sutured using 3-0 silk thread and subjected to pressure dressing with cotton ball soaking with normal saline. After transplantation of skin, mice were raised in separated cages, and all processes were finished within 2 h. After 10 days, skin damage arounding was injected with PBMC (1×10^6/mouse) provided by transplantation supplier and treated with ConA. After two weeks, exterior packing was dismantled to observe the survival situation of skin and confirm the success of model establishment, and the successful model was used for further experiment.
The administration was kept for 10 days.
Before sacrificing guinea pigs, blood was taken and centrifuged under 2000r/rain, to collect serum. Using ELISA kit, optical density was detected as instructions in kit. The results were calculated by standard curve, and the ratio of cAMP/cGMP was calculated according to the results.
All values were processed using SPSS13.0 software, and the experimental results were presented as x±s. p<0.05 was considered to be a statistical difference. The mean of multi-samples was compared using analysis of variance.
(In an ELISA, binding on a coated surface is turned into a signal by an enzyme label.)

The subject of test [3] is VEGF. Description: Psoriasis vulgaris model: VEGF levels in serum. It is filed as in vivo, SCID mice. As to conditions: after 10 days administration, x ± s, n = 10.
Description: as §1, with “After two weeks, exterior packing was dismantled to observe the survival situation of skin and confirm the success of model establishment, and the successful model was used for further experiment.” left out
Before sacrificing guinea pigs, blood was taken and centrifuged under 2000r/rain, to collect serum. Using ELISA kit, optical density was detected as instructions in kit. The results were calculated by standard curve, and the ratio of cAMP/cGMP was calculated according to the results. […]

[4] abbreviates: transplanted skin, HE stain, after 10 days administration.
The mark [5] stands for this setting: serum, ELISA, after 10 days administration.

For `COc1cc(C)c(/C=C/C(C)=C/C=C/C(C)=C/C(=O)O)c(C)c1C` [Positive control, Acitretin A capsule], the Number of acanthocytes in test [1] (10 days administration, x ± s, n = 10) is 27.09 ± 8.83^a. In test [1] (surrounding superficial layer blood vessels in dermis, 200 times visual fields, 10 days administration, x ± s, n = 10), the “Monocytes (count)” value is on record as 66.40 ± 9.28^a. Moreover, in test [1] (test drugs 100 mg/kg intragastric once a day, positive control 2.25 mg/kg twice a day, 10 days, x ± s, n = 10), the Baker scores is reported as 6.39 ± 1.53^a. Also, in test [1] (setting [4]), the “degree of parakeratosis under light microscope” value is recorded as “middle degree of parakeratosis”; the “epidermis wooden stick-like hyperplasia” value is “middle degree of wooden stick-like hyperplasia”; the “monocyte infiltration surrounding blood vessels in dermis” value is “small amounts of monocyte infiltration”; the punctiform granular layer entry is “local visible punctiform granular layer and hyperkeratinization”. The spinous layer thickness in test [1] (setting [4]) is reported as 24-32 layers. Moreover, in test [2] (ratio of serum contents), the cAMP/cGMP is 3.02 ± 0.08^ab. Moreover, in test [2] (setting [5]), the cAMP in serum is 10.22 ± 0.73^ab pmol/m1 and the cGMP in serum is reported as 3.38 ± 0.20^ab pmol/m1. The “VEGF levels in serum” value in test [3] is given as 93.40 ± 6.54^ab pg/m1.
